Test results taken from the supplement of paper PMC11061612.

Legend:
Test in all cases: combination Emax (second highest fraction inhibited in the dose matrix, 72 h); higher = more inhibition; extreme values may be limits of the assay
[1] = system: NCI-H1876 (Small Cell Lung Carcinoma)
Outline: (§1)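 Cell lines grown in DMEM/F12 or RPMI with 10% FBS were plated in 1536-well plates and held 24 hours at 37°C, 5% CO2 before 72 hours of exposure to two-drug dose matrices, with DMSO typically at 0.2%. CellTiter-Glo 2.0 luminescence gave viability, which was converted to inhibition. Vehicle wells were set to 0 and blank wells to 1. Combination Emax is the second-highest inhibition in the matrix, and Bliss excess is the observed combination effect minus the expected EA + EB − EA·EB, where EA and EB are the single-agent effects.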

[2] = system: IA-LM (Non-Small Cell Lung Carcinoma)
Outline: as §1

[3] = system: KP-4 (Pancreatic Carcinoma)
Outline: as §1

[4] = system: NCI-H596 (Other Solid Carcinomas)
Outline: as §1

[5] = system: ES6 (Ewing's Sarcoma)
Outline: as §1

[6] = system: MOLT-13 (T-Lymphoblastic Leukemia)
Outline: as §1

[7] = system: MONO-MAC-6 (Acute Myeloid Leukemia)
Outline: as §1

[8] = system: BHT-101 (Thyroid Gland Carcinoma)
Outline: as §1

[9] = system: SCC-4 (Oral Cavity Carcinoma)
Outline: as §1

[10] = system: OVCAR-3 (Ovarian Carcinoma)
Outline: as §1

[11] = system: LCLC-103H (Non-Small Cell Lung Carcinoma)
Outline: as §1

[12] = system: SK-N-SH (Neuroblastoma)
Outline: as §1

[13] = system: PA-TU-8988T (Pancreatic Carcinoma)
Outline: as §1

[14] = system: SK-CO-1 (Colorectal Carcinoma)
Outline: as §1

[15] = system: CPC-N (Small Cell Lung Carcinoma)
Outline: as §1

[16] = system: MDA-MB-415 (Breast Carcinoma)
Outline: as §1

[17] = system: NCI-H226 (Mesothelioma)
Outline: as §1

[18] = system: NCI-H1963 (Small Cell Lung Carcinoma)
Outline: as §1

[19] = system: SNU-407 (Colorectal Carcinoma)
Outline: as §1

[20] = system: GAK (Melanoma)
Outline: as §1

SMILES	combination Emax [1]	combination Emax [2]	combination Emax [3]	combination Emax [4]	combination Emax [5]	combination Emax [6]	combination Emax [7]	combination Emax [8]	combination Emax [9]	combination Emax [10]	combination Emax [11]	combination Emax [12]	combination Emax [13]	combination Emax [14]	combination Emax [15]	combination Emax [16]	combination Emax [17]	combination Emax [18]	combination Emax [19]	combination Emax [20]
COc1cccc(OCCCN)c1-c1cc(Nc2cnc(C#N)cn2)n[nH]1 [Prexasertib] + CCc1c2c(nc3ccc(O)cc13)-c1cc3c(c(=O)n1C2)COC(=O)[C@]3(O)CC [SN-38] (first compound max 1 µM, 7x7, partner max 0.3 µM)	1	0.867	0.9	0.735	0.837	1	1	0.91	0.917	0.963	0.932	0.947	0.921	0.826	1	0.538	0.4	1	0.639	0.641
COc1cccc(OCCCN)c1-c1cc(Nc2cnc(C#N)cn2)n[nH]1 [Prexasertib] + CN(C)CCCOc1ccc(-c2ccc3ncc4c(c3c2)n(C2CCOCC2)c(=O)n4C)cn1 [AZD0156] (first compound max 1 µM, 7x7, partner max 1 µM)	0.968	0.42	0.434	0.414	0.573	1	0.963	0.799	0.63	0.758	0.718	0.876	0.38	0.695	1	0.321	0.179	0.975	0.653	0.718
COc1cccc(OCCCN)c1-c1cc(Nc2cnc(C#N)cn2)n[nH]1 [Prexasertib] + C[C@@H]1COCCN1C2=NC(=NC(=C2)C3(CC3)[S@](=N)(=O)C)C4=C5C=CNC5=NC=C4 [AZD6738] (first compound max 1 µM, 7x7, partner max 10 µM)	0.981	0.459	0.536	0.487	0.61	1	0.993	0.78	0.676	0.773	0.738	0.901	0.46	0.656	1	0.45	0.176	0.952	0.757	0.753
COc1cccc(OCCCN)c1-c1cc(Nc2cnc(C#N)cn2)n[nH]1 [Prexasertib] + Cc1cc2ncnn2cc1Nc1ncc2c(n1)n(C1CCOCC1)c(=O)n2C [AZD7648] (first compound max 1 µM, 7x7, partner max 10 µM)	0.988	0.489	0.429	0.438	0.625	1	0.976	0.748	0.609	0.784	0.725	0.844	0.532	0.593	1	0.413	0.209	0.975	0.597	0.708
COc1cccc(OCCCN)c1-c1cc(Nc2cnc(C#N)cn2)n[nH]1 [Prexasertib] + O=C(c1cc(Cc2n[nH]c(=O)c3ccccc23)ccc1F)N1CCN(C(=O)C2CC2)CC1 [Olaparib] (first compound max 1 µM, 7x7, partner max 10 µM)	0.981	0.463	0.641	0.642	0.58	1	0.976	0.774	0.588	0.821	0.78	0.834	0.288	0.643	0.984	0.397	0.275	0.908	0.583	0.668
COc1cc2c(cc1OCCCCCOc1cc3c(cc1OC)C(=O)N1C=C(C)C[C@H]1C=N3)N=C[C@@H]1CC(C)=CN1C2=O [SG3199] + O=C(c1cc(Cc2n[nH]c(=O)c3ccccc23)ccc1F)N1CCN(C(=O)C2CC2)CC1 [Olaparib] (first compound max 0.001 µM, 7x7, partner max 10 µM)	0.7	0.139	0.0915	0.202	0.144	0.226	0.234	0.193	0.0768	0.127	0.0713	0.274	0.206	0.46	0.243	0.0958	0.0668	0.293	0.182	0.106
